Test results as given in US8114902B2, “2-aminobutanol compound and use thereof for medical purposes” (Mitsubishi Tanabe Pharma Corporation, priority 2006, dated 2012).

Tests used:
[1] = tested on: mouse peripheral blood lymphocyte count; experiment: Evaluation of mouse peripheral blood lymphocyte count-decreasing effect; format: in vivo, male BALB/cAnNCrj mice; conditions: intraperitoneal administration in 20% cyclodextrin, blood collected 24 hr after administration, flow cytometer count
Experimental: Evaluation of Mouse Peripheral Blood Lymphocyte Count-Decreasing Effect
The compound of the present invention was dissolved or suspended in 20% cyclodextrin (manufactured by NIHON SHOKUHIN KAKO CO., LTD.), and intraperitoneally administered to 7- to 10-week-old male BALB/cAnNCrj mice (Charles River Laboratories Japan, Inc.) at a dose of 0.001-10 mg/kg body weight. At 24 hr after the administration of the compound of the present invention, the peripheral blood (about 0.3 ml) was collected using a tuberculin syringe (manufactured by TERUMO CORPORATION) treated with heparin sodium (manufactured by NovoNordisk) from the postcava of the mice under ether anesthesia. The blood (0.1 ml) was hemolyzed in an automatic hemolysis treatment apparatus (TQ-Prep, manufactured by Beckman Instruments•Coulter) and, using a Flow Cytometer (CYTOMICS FC 500, manufactured by Beckman Instruments•Coulter), the lymphocytes were counted by a gating method using the forward and side scattering of the laser beam as an index and Flow-Count™ Fluorospheres (manufactured by Beckman Instruments•Coulter), which are the standard particles in a known number, as the internal standard. Taking the lymphocyte count of the vehicle group as 100%, the dose necessary for decreasing the lymphocyte count thereof to 50% was calculated and taken as ED50 value (mg/kg body weight).

[2] = Action on heart rate in rat telemetry; format: in vivo, male Sprague-Dawley (IGS) rats; conditions: oral administration in 0.5% hydroxypropylmethylcellulose, up to the dose of 10 mg/kg body weight, heart rate measured from 24 hr before to 72 hr after administration
Experimental: Action on Heart Rate in Rat Telemetry
Male Sprague-Dawley (IGS) rats were anesthetized by intraperitoneal administration of Nembutal (manufactured by DAINIPPON PHARMACEUTICAL CO., LTD.), and a pressure sensor connected to a telemetric transmitter (TL11M2-C50-PTX, manufactured by Data Sciences International) was inserted into the abdominal artery, whereby the transmitter was subcutaneously set in the abdomen. The data of blood pressure and heart rate were recorded by an analysis software (Dataquest A.R.T., Data Sciences International) via a receiver (RPC-1, manufactured by Data Sciences International). After confirmation of the recovery of the circadian rhythm of the heart rate after elapse of 10 days to 2 weeks postoperation, the rats were subjected to the experiment. The compound of the present invention was suspended in 0.5% hydroxypropylmethylcellulose (manufactured by Shin-Etsu Chemical Co., Ltd.) and administered orally. The heart rate was measured from 24 hr before administration to 72 hr after administration.

SMILES: Cc1ccc(Sc2ccc(-c3ccc(CCC(N)(CO)CO)c(Cl)c3)c(F)c2)cc1 [Example 18, 2-amino-2-{2-[3-chloro-2′-fluoro-4′-(4-methylphenylthio)biphenyl-4-yl]ethyl}propane-1,3-diol]
- mouse peripheral blood lymphocyte count-decreasing effect, ED50 value (dose necessary for decreasing the lymphocyte count to 50% of vehicle group) [1]: 0.04 mg/kg body weight

SMILES: Cc1ccc(Sc2ccc(-c3ccc(CCC(N)(CO)CO)cc3)c(F)c2)cc1 [Example 4, 2-amino-2-{2-[2′-fluoro-4′-(4-methylphenylthio)biphenyl-4-yl]ethyl}propane-1,3-diol]
- mouse peripheral blood lymphocyte count-decreasing effect, ED50 value (dose necessary for decreasing the lymphocyte count to 50% of vehicle group) [1]: 0.05 mg/kg body weight
- influence on heart rate in rats (telemetry) [2]: did not influence the heart rate
